Test system: IGROV1 complex spheroids (HUVEC, MSC), viability % test/control
Test: Anticancer human tumor IGROV1 cell line growth inhibition [GQUAD];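 note: spheroids exposed to compounds for 7 days before readout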;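 for viability, T/C: 100% = DMSO vehicle control viability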
Conditions: for IC50: curve of first compound; for viability, T/C: stronger effect = lower value
In short: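 Tumor cells were grown as complex spheroids with HUVEC endothelial cells and mesenchymal stem cells as stroma. G-quadruplex stabilizers were combined with targeted agents over half-log dilutions from near the clinical Cmax, or from 10 microM.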

[1] = second compound 0.0316 µM, first compound 0.0316 µM
[2] = second compound 0.0316 µM, first compound 0.1 µM
[3] = second compound 0.0316 µM, first compound 0.316 µM
[4] = second compound 0.0316 µM, first compound 1 µM
[5] = second compound 0.0316 µM, first compound 3.16 µM
[6] = second compound 0.0316 µM, first compound 10 µM
[7] = second compound 0.1 µM, first compound 0.0316 µM
[8] = second compound 0.1 µM, first compound 0.1 µM
[9] = second compound 0.1 µM, first compound 0.316 µM
[10] = second compound 0.1 µM, first compound 1 µM
[11] = second compound 0.1 µM, first compound 3.16 µM
[12] = second compound 0.1 µM, first compound 10 µM
[13] = second compound 0.316 µM, first compound 0.0316 µM
[14] = second compound 0.316 µM, first compound 0.1 µM
[15] = second compound 0.316 µM, first compound 0.316 µM
[16] = second compound 0.316 µM, first compound 1 µM
[17] = second compound 0.316 µM, first compound 3.16 µM
[18] = second compound 0.316 µM, first compound 10 µM
[19] = second compound 1 µM, first compound 0.0316 µM
[20] = second compound 1 µM, first compound 0.1 µM
[21] = second compound 1 µM, first compound 0.316 µM
[22] = second compound 1 µM, first compound 1 µM
[23] = second compound 1 µM, first compound 3.16 µM
[24] = second compound 1 µM, first compound 10 µM
[25] = second compound 3.16 µM, first compound 0.0316 µM
[26] = second compound 3.16 µM, first compound 0.1 µM
[27] = second compound 3.16 µM, first compound 0.316 µM
[28] = second compound 3.16 µM, first compound 1 µM
[29] = second compound 3.16 µM, first compound 3.16 µM
[30] = second compound 3.16 µM, first compound 10 µM
[31] = second compound 10 µM, first compound 0.0316 µM
[32] = second compound 10 µM, first compound 0.1 µM
[33] = second compound 10 µM, first compound 0.316 µM
[34] = second compound 10 µM, first compound 1 µM
[35] = second compound 10 µM, first compound 3.16 µM
[36] = second compound 10 µM, first compound 10 µM

C=CC(=O)N1CCN(c2nc(=O)n(-c3c(C)ccnc3C(C)C)c3nc(-c4c(O)cccc4F)c(F)cc23)C(C)C1 (stereo unspecified) + Cc1[nH]c2ccc(F)cc2c1-c1nc2c3cccnc3c3ncccc3c2[nH]1
IC50 (second compound 0.0316 µM): > 10000 nM
IC50 (second compound 0.1 µM): > 10000 nM
IC50 (second compound 0.316 µM): > 10000 nM
IC50 (second compound 1 µM): < 31.6 nM
IC50 (second compound 3.16 µM): < 31.6 nM
IC50 (second compound 10 µM): < 31.6 nM
viability, T/C [1]: 104%
viability, T/C [2]: 70.5%
viability, T/C [3]: 103%
viability, T/C [4]: 45.8%
viability, T/C [5]: 94.8%
viability, T/C [6]: 87.5%
viability, T/C [7]: 90.2%
viability, T/C [8]: 89.7%
viability, T/C [9]: 80.6%
viability, T/C [10]: 75.1%
viability, T/C [11]: 92.8%
viability, T/C [12]: 99.2%
viability, T/C [13]: 70.5%
viability, T/C [14]: 93.9%
viability, T/C [15]: 76.2%
viability, T/C [16]: 78.9%
viability, T/C [17]: 80%
viability, T/C [18]: 56.8%
viability, T/C [19]: 3.43%
viability, T/C [20]: 3.79%
viability, T/C [21]: 6.26%
viability, T/C [22]: 4.23%
viability, T/C [23]: 4.27%
viability, T/C [24]: 2.01%
viability, T/C [25]: 3.63%
viability, T/C [26]: 4.79%
viability, T/C [27]: 4.74%
viability, T/C [28]: 4.03%
viability, T/C [29]: 4.45%
viability, T/C [30]: 2.13%
viability, T/C [31]: 4.57%
viability, T/C [32]: 4.39%
viability, T/C [33]: 4.91%
viability, T/C [34]: 5.12%
viability, T/C [35]: 4.17%
viability, T/C [36]: 2.46%

CC(C)n1c(=O)n(C)c2cnc3cc(F)c(-c4ccc(OCCCN5CCCCC5)nc4)cc3c21 + Cc1[nH]c2ccc(F)cc2c1-c1nc2c3cccnc3c3ncccc3c2[nH]1
IC50 (second compound 0.0316 µM): 3520 nM
IC50 (second compound 0.1 µM): 4100 nM
IC50 (second compound 0.316 µM): 2080 nM
IC50 (second compound 1 µM): < 31.6 nM
IC50 (second compound 3.16 µM): < 31.6 nM
IC50 (second compound 10 µM): < 31.6 nM
viability, T/C [1]: 99.9%
viability, T/C [2]: 84.8%
viability, T/C [3]: 92.5%
viability, T/C [4]: 69%
viability, T/C [5]: 55.5%
viability, T/C [6]: 18.6%
viability, T/C [7]: 81.2%
viability, T/C [8]: 91.8%
viability, T/C [9]: 82.6%
viability, T/C [10]: 62.3%
viability, T/C [11]: 65.6%
viability, T/C [12]: 20.5%
viability, T/C [13]: 76.4%
viability, T/C [14]: 88.8%
viability, T/C [15]: 78%
viability, T/C [16]: 59%
viability, T/C [17]: 44.5%
viability, T/C [18]: 12.2%
viability, T/C [19]: 4%
viability, T/C [20]: 4.91%
viability, T/C [21]: 5.53%
viability, T/C [22]: 4.22%
viability, T/C [23]: 5.34%
viability, T/C [24]: 3.26%
viability, T/C [25]: 4.58%
viability, T/C [26]: 4.72%
viability, T/C [27]: 4.85%
viability, T/C [28]: 5.73%
viability, T/C [29]: 4.75%
viability, T/C [30]: 1.86%
viability, T/C [31]: 4.57%
viability, T/C [32]: 6.24%
viability, T/C [33]: 5.89%
viability, T/C [34]: 5.99%
viability, T/C [35]: 4.07%
viability, T/C [36]: 2.35%

CC[C@@]1(O)C(=O)OCc2c1cc1n(c2=O)Cc2cc3c(CN(C)C)c(O)ccc3nc2-1 + Cc1[nH]c2ccc(F)cc2c1-c1nc2c3cccnc3c3ncccc3c2[nH]1
IC50 (second compound 0.0316 µM): 26.3 nM
IC50 (second compound 0.1 µM): 23.1 nM
IC50 (second compound 0.316 µM): 9.14 nM
IC50 (second compound 1 µM): < 0.999 nM
IC50 (second compound 3.16 µM): < 0.999 nM
IC50 (second compound 10 µM): < 0.999 nM
viability, T/C (second compound 0.0316 µM, first compound 0.000999 µM): 99.8%
viability, T/C (second compound 0.0316 µM, first compound 0.00316 µM): 73.2%
viability, T/C (second compound 0.0316 µM, first compound 0.00999 µM): 92.3%
viability, T/C [1]: 42.7%
viability, T/C (second compound 0.0316 µM, first compound 0.0999 µM): 10.9%
viability, T/C [3]: 10.8%
viability, T/C (second compound 0.1 µM, first compound 0.000999 µM): 96.9%
viability, T/C (second compound 0.1 µM, first compound 0.00316 µM): 77.7%
viability, T/C (second compound 0.1 µM, first compound 0.00999 µM): 94.9%
viability, T/C [7]: 35%
viability, T/C (second compound 0.1 µM, first compound 0.0999 µM): 10.7%
viability, T/C [9]: 11.1%
viability, T/C (second compound 0.316 µM, first compound 0.000999 µM): 93.1%
viability, T/C (second compound 0.316 µM, first compound 0.00316 µM): 58.5%
viability, T/C (second compound 0.316 µM, first compound 0.00999 µM): 56.9%
viability, T/C [13]: 34.6%
viability, T/C (second compound 0.316 µM, first compound 0.0999 µM): 9.45%
viability, T/C [15]: 10.2%
viability, T/C (second compound 1 µM, first compound 0.000999 µM): 4.53%
viability, T/C (second compound 1 µM, first compound 0.00316 µM): 5.2%
viability, T/C (second compound 1 µM, first compound 0.00999 µM): 3.92%
viability, T/C [19]: 4.65%
viability, T/C (second compound 1 µM, first compound 0.0999 µM): 5.01%
viability, T/C [21]: 4.15%
viability, T/C (second compound 3.16 µM, first compound 0.000999 µM): 4.32%
viability, T/C (second compound 3.16 µM, first compound 0.00316 µM): 4.59%
viability, T/C (second compound 3.16 µM, first compound 0.00999 µM): 4.67%
viability, T/C [25]: 4.52%
viability, T/C (second compound 3.16 µM, first compound 0.0999 µM): 4.31%
viability, T/C [27]: 2.77%
viability, T/C (second compound 10 µM, first compound 0.000999 µM): 4.73%
viability, T/C (second compound 10 µM, first compound 0.00316 µM): 3.46%
viability, T/C (second compound 10 µM, first compound 0.00999 µM): 4.25%
viability, T/C [31]: 4.75%
viability, T/C (second compound 10 µM, first compound 0.0999 µM): 4.66%
viability, T/C [33]: 3.29%

Source: PubChem BioAssay AID2060486 (Molecular Pharmacology Branch, DTP, NCI, 2025)
